This is an account of results in patent US20170210751A1, “PRMT5 INHIBITORS AND USES THEREOF” (Epizyme, Inc., priority 2014, published 2017).

SMILES strings stand for the structures.

The target of the experiment is T1, PRMT5/MEP50 (Homo sapiens, UniProt O14744).
T1 construct: Flag-PRMT5; made in house; host or cells: Spodoptera frugiperda (SF9) insect cells, baculovirus (pDEST8)
T1 sequence (O14744 with tags, fused parts or gaps): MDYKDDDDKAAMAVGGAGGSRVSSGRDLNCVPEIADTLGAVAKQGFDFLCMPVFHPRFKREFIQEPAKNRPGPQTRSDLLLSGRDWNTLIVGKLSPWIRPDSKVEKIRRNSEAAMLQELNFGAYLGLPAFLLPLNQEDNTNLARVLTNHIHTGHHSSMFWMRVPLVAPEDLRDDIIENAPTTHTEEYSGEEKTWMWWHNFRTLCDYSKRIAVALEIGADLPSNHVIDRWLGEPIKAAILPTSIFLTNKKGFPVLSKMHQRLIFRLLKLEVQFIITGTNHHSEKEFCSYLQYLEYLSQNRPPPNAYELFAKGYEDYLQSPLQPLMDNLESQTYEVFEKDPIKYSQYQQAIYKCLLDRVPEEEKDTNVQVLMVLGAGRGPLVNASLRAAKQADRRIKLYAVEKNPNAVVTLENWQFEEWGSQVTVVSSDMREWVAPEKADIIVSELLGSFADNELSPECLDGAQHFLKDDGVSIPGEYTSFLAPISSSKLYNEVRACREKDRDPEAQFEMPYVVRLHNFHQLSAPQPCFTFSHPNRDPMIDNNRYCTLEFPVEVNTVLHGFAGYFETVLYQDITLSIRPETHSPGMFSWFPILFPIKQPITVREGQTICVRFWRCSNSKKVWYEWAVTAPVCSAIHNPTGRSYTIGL
T1 sequence (Q9BQA1 with tags, fused parts or gaps partner limits assumed): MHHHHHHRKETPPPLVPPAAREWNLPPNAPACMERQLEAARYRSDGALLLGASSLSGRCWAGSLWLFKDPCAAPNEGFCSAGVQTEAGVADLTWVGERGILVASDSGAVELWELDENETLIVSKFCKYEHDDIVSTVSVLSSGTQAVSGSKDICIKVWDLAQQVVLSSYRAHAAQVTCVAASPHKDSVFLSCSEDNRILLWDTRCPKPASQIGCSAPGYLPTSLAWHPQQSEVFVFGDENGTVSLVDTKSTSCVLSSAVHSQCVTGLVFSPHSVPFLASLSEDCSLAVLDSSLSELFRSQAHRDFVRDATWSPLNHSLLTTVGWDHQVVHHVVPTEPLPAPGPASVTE
In words: PRMT5 Biochemical Assay (PRMT5/MEP50 enzyme assay on peptide substrate, 3H-SAM Flashplate). To be noted: PRMT5/MEP50 4 nM, 3H-SAM 75 nM, peptide 40 nM, 30 min preincubation at 25 degrees Celsius. An excerpt:
S-adenosylmethionine (SAM), S-adenosylhomocysteine (SAH), bicine, KCl, Tween20, dimethylsulfoxide (DMSO), bovine skin gelatin (BSG), and Tris(2-carboxyethyl)phosphine hydrochloride solution (TCEP) were purchased from Sigma-Aldrich at the highest level of purity possible. ^3H-SAM was purchase from American Radiolabeled Chemicals with a specific activity of 80 Ci/mmol. 384-well streptavidin Flashplates were purchased from PerkinElmer.
Peptide representative of human histone H4 residues 1-15 was synthesized with a C-terminal linker-affinity tag motif and a C-terminal amide cap by 21st Century Biochemicals. The peptide was high high-performance liquid chromatography (HPLC) purified to greater than 95% purity and confirmed by liquid chromatography mass spectrometry (LC-MS). The sequence was Ac-[…][K-Biot]-amide (SEQ ID NO.:3).
Full-length human PRMT5 (NM_006109.3) transcript variant 1 clone was amplified from a fetal brain cDNA library, incorporating flanking 5′ sequence encoding a FLAG tag ([…]) (SEQ ID NO.:4) fused directly to Ala 2 of PRMT5. Full-length human MEP50 (NM_024102) clone was amplified from a human testis cDNA library incorporating a 5′ sequence encoding a 6-histidine tag (MHHHHHH) (SEQ ID NO.:5) fused directly to Arg 2 of MEP50. The amplified genes were sublconed into pENTR/D/TEV (Life Technologies) and subsequently transferred by Gateway™ attL×attR recombination to pDEST8 baculvirus expression vector (Life Technologies).
Recombinant baculovirus and Baculovirus-Infected Insect Cells (BIIC) were generated according to Bac-to-Bac kit instructions (Life Technologies) and Wasilko, 2006, respectively. Protein over-expression was accomplished by infecting exponentially growing Spodoptera frugiperda (SF9) cell culture at 1.2×10^6 cell/ml with a 5000 fold dilution of BIIC stock. Infections were carried out at 27° C. for 72 hours, harvested by centrifugation, and stored at −80° C. for purification.
Flag-PRMT5/6His-MeP50 was eluted with 300 mM Imidazole in the same buffer. The purity of recovered protein was 87%. Reference: Wasilko, D. J. and S. E. Lee: “TIPS: titerless infected-cells preservation and scale-up” Bioprocess J., 5 (2006), pp. 29-32.
General Procedure for PRMT5/MEP50 Enzyme Assays on Peptide Substrates.
The assays were all performed in a buffer consisting of 20 mM Bicine (pH=7.6), 1 mM TCEP, 0.005% BSG, and 0.002% Tween20, prepared on the day of use. Compounds in 100% DMSO (1 ul) were spotted into a polypropylene 384-well V-bottom plates (Greiner) using a Platemate Plus outfitted with a 384-channel head (Thermo Scientific). DMSO (1 ul) was added to Columns 11, 12, 23, 24, rows A-H for the maximum signal control and 1 ul of SAH, a known product and inhibitor of PRMT5/MEP50, was added to columns 11, 12, 23, 24, rows I-P for the minimum signal control. A cocktail (40 ul) containing the PRMT5/MEP50 enzyme and the peptide was added by Multidrop Combi (Thermo-Fisher). The compounds were allowed to incubate with PRMT5/MEP50 for 30 min at 25 degrees Celsius, then a cocktail (10 ul) containing ^3H-SAM was added to initiate the reaction (final volume=51 ul). The final concentrations of the components were as follows: PRMT5/MEP50 was 4 nM, ^3H-SAM was 75 nM, peptide was 40 nM, SAH in the minimum signal control wells was 100 uM, and the DMSO concentration was 1%. The assays were stopped by the addition of non-radioactive SAM (10 ul) to a final concentration of 600 uM, which dilutes the ^3H-SAM to a level where its incorporation into the peptide substrate is no longer detectable. 50 ul of the reaction in the 384-well polypropylene plate was then transferred to a 384-well Flashplate and the biotinylated peptides were allowed to bind to the streptavidin surface for at least 1 hour before being washed three times with 0.1% Tween20 in a Biotek ELx405 plate washer. […]
Broadly, the IC50 is the concentration needed to halve the response being measured. Regarding `Cn1cc2c(n1)CCN(C[C@H](O)COc1cccc(-c3ccc4ncn(C)c4c3)c1)C2` [Compound 3-18], the IC50 was more than 50 µM.

As to `CC(=O)N1CC(Nc2cc(C(=O)NC[C@H](O)CN3CCc4cnn(C)c4C3)ncn2)C1` [Compound 3-49], the IC50 is 1 to 10 µM.

Turning to `CC(=O)N1CC(Nc2cc(C(=O)NC[C@H](O)CN3CCc4sc(C)c(C)c4C3)ncn2)C1` [Compound 1-31], the IC50 was less than 0.1 µM.

With `OC(COc1cccc(CNC2CCCC2)c1)CN1CCc2[nH]cnc2C1` (centres unmarked) [Compound 3-7], the IC50 was more than 50 µM.

Take `CC(=O)N1CCC(Nc2cc(C(=O)NC[C@H](O)CN3CCc4nc(C)sc4C3)ccn2)CC1` [Compound 1-9]: the IC50 lay within 1 to 10 µM.

As for `CC(=O)N1CCC(Nc2cc(C(=O)NC[C@H](O)CN3CCc4c(C)csc4C3)ncn2)CC1` [Compound 1-10, (S)-6-((1-acetylpiperidin-4-yl)amino)-N-(2-hydroxy-3-(3-methyl-4,5-dihydrothieno[2,3-c]pyridin-6(7H)-yl)propyl)pyrimidine-4-carboxamide], the IC50 is less than 0.1 µM.

Consider `CC(=O)N1CCC(Nc2cc(C(=O)NC[C@H](O)CN3CCc4sc(C)c(C)c4C3)ncn2)CC1` [Compound 1-39], for which the IC50 was less than 0.1 µM.

`Cn1cnc2c1CN(C[C@H](O)COc1cccc(CNC3CCCC3)c1)CC2` [Compound 3-16]: the IC50 is more than 50 µM.

`Cc1nc2c(s1)CCN(C[C@@H](O)CNC(=O)c1cc(NC3COC3)ncn1)C2` [Compound 1-22]: the IC50 was more than 10 µM.

In the case of `Cn1cnc2c1CCN(C[C@@H](O)COc1cccc(CNC3CCCC3)c1)C2` [Compound 3-3], the IC50 is more than 50 µM.

As for `Cn1cc2c(n1)CCN(C[C@@H](O)COc1cccc(-c3ccc4ncn(C)c4c3)c1)C2` [Compound 3-1], the IC50 was more than 50 µM.

With `CC(=O)N1CCC(Nc2cc(C(=O)NC[C@H](O)CN3CCc4cn(C)nc4C3)ccn2)CC1` [Compound 3-55], the IC50 is 0.101 to 1 µM.

As to `CC(=O)N1CCC(Nc2cc(C(=O)NC[C@H](O)CN3CCc4cnn(C)c4C3)ncn2)CC1` [Compound 3-60], the IC50 lay within 0.101 to 1 µM.

For the molecule `OC(COc1ccccc1)CN1CCc2[nH]nc(-c3ccccc3)c2C1` (centres unmarked) [Compound 3-32], the IC50 was more than 50 µM.

As to `Cn1ncc2c1CCN(C[C@@H](O)COc1cccc(-c3ccc4ncn(C)c4c3)c1)C2` [Compound 3-4], the IC50 was more than 50 µM.

For `OC(COc1cccc(CNC2CCCC2)c1)CN1CCc2ccncc2C1` (centres unmarked) [Compound 2-2, 1-(3-((cyclopentylamino)methyl)phenoxy)-3-(3,4-dihydro-2,7-naphthyridin-2(1H)-yl)propan-2-ol], the IC50 was more than 50 µM.

`Cn1cnc2c1CN(C[C@@H](O)COc1cccc(CNC3CCCC3)c1)CC2` [Compound 3-15]: the IC50 was more than 50 µM.

As for `CC(=O)N1CCC(Nc2cc(C(=O)NC[C@H](O)CN3CCc4[nH]ncc4C3)ncn2)CC1` [Compound 3-20], the IC50 was in the range of 1 to 10 µM.

As for `Cn1cnc2ccc(-c3cccc(OCC(O)CN4CCc5[nH]nc(-c6ccccc6)c5C4)c3)cc21` (centres unmarked) [Compound 3-6, 1-(3-(1-methyl-1H-benzo[d]imidazol-6-yl)phenoxy)-3-(3-phenyl-6,7-dihydro-1H-pyrazolo[4,3-c]pyridin-5(4H)-yl)propan-2-ol], the IC50 was in the range of 10 to 50 µM.

On to `O=C(NC[C@H](O)CN1CCc2scnc2C1)c1cc(NC2COC2)ncn1` [Compound 1-21], for which the IC50 is more than 10 µM.

As for `CC(=O)N1CC(Nc2cc(C(=O)NC[C@H](O)CN3CCc4c(C)csc4C3)ncn2)C1` [Compound 1-26], the IC50 fell in the range of 0.101 to 1 µM.

On to `CC(=O)N1CCC(Nc2cc(C(=O)NC[C@H](O)CN3CCc4cn(C)nc4C3)ncn2)CC1` [Compound 3-59], for which the IC50 was more than 10 µM.

As for `CC(=O)N1CC(Nc2cc(C(=O)NC[C@H](O)CN3CCc4scnc4C3)ncn2)C1` [Compound 1-25], the IC50 was more than 10 µM.

As for `Cn1ncc2c1CCN(C[C@H](O)COc1cccc(-c3ccc4ncn(C)c4c3)c1)C2` [Compound 3-5], the IC50 is more than 50 µM.

Consider `Cn1ncc2c1CN(C[C@@H](O)CNC(=O)c1cc(NC3COC3)ncn1)CC2` [Compound 3-43], for which the IC50 lay within 1 to 10 µM.

Turning to `Cn1cc2c(n1)CCN(CC(O)COc1cccc(CNC3CCCC3)c1)C2` (centres unmarked) [Compound 3-2], the IC50 is more than 50 µM.

Take `Cn1cnc2c1CCN(C[C@H](O)COc1cccc(CNC3CCCC3)c1)C2` [Compound 3-13]: the half-maximal inhibitory concentration (IC50) is more than 50 µM.

For `CC(=O)N1CCC(Nc2cc(C(=O)NC[C@H](O)CN3CCc4sc(C)c(C)c4C3)ccn2)CC1` [Compound 1-15, (S)-2-((1-acetylpiperidin-4-yl)amino)-N-(3-(2,3-dimethyl-6,7-dihydrothieno[3,2-c]pyridin-5(4H)-yl)-2-hydroxypropyl)isonicotinamide], the IC50 was less than 0.1 µM.

Turning to `CC(=O)N1CC(Nc2cc(C(=O)NC[C@H](O)CN3CCc4cn(C)nc4C3)ncn2)C1` [Compound 3-48], the IC50 is more than 10 µM.

For the molecule `Cn1cnc2ccc(-c3cccc(OCC(O)CN4CCc5ncccc5C4)c3)cc21` (centres unmarked) [Compound 2-4, 1-(7,8-dihydro-1,6-naphthyridin-6(5H)-yl)-3-(3-(1-methyl-1H-benzo[d]imidazol-6-yl)phenoxy)propan-2-ol], the IC50 was in the range of 10 to 50 µM.

In the case of `Cn1cc2c(n1)CN(C[C@@H](O)CNC(=O)c1cc(NC3COC3)ncn1)CC2` [Compound 3-42], the IC50 was more than 10 µM.

On to `Cn1ncc2c1CCN(CC(O)COc1cccc(CNC3CCCC3)c1)C2` (centres unmarked) [Compound 3-8], for which the IC50 was more than 50 µM.

Take `Cc1sc2c(c1C)CN(C[C@@H](O)CNC(=O)c1cc(NC3COC3)ncn1)CC2` [Compound 1-24]: the IC50 is less than 0.1 µM.

As for `OC(COc1cccc(CNC2CCCC2)c1)CN1CCc2cnccc2C1` (centres unmarked) [Compound 2-3], the IC50 was more than 50 µM.

Turning to `CC(=O)N1CCC(Nc2cc(C(=O)NC[C@H](O)CN3CCc4cnn(C)c4C3)ccn2)CC1` [Compound 3-37, (S)-2-((1-acetylpiperidin-4-yl)amino)-N-(2-hydroxy-3-(1-methyl-4,5-dihydro-1H-pyrazolo[3,4-c]pyridin-6(7H)-yl)propyl)isonicotinamide], the IC50 lay within 0.101 to 1 µM.
